Laboratory results from patent publication US20220106596A1, “A METHOD OF GENE EDITING” (University of Washington, priority 2019, published 2022).

Key:
[1] = test system: HT-1080 cells with LHSN63D530 provirus and HPRT exon3D4; assay: neo gene editing in HT-1080 cells infected with AAV2-HSN5′ (G418 selection), effect of emetine; type: cell-based, human
Text: (§1) The murine leukemia virus (MLV) vector LHSN63Δ53O contains a nonfunctional neomycin phosphotransferase target gene (neo) with a 53-bp deletion at nucleotide 63 of its open reading frame, a hygromycin phosphotransferase gene (hph) for selection, and a plasmid replication origin for recovering the target sites.
(§2) In some embodiments, a cell is gene edited using the HT-1080 (human fibrosarcoma cells) gene editing assay. This method uses HT-1080 neo/HPRT editing cells transduced with LHSN63Δ53O. HT-1080 cells contain an integrated copy of an MLV LHSN63Δ530 targeting locus and a 4 by deletion in the single copy, X-linked HPRT gene at exon 3. The cells are transduced with AAV2-HSN5′ and cultured in G418 to identify neo gene-edited cells. The AAV2-HSN5′ gene targeting vector contains sequences homologous to MLV-LHSN63Δ53O with a truncated neo gene that lacks the 53 by deletion. Alternatively, HT-1080 cells are transduced with AAV2-HPe3 targeting vector and selected with HAT medium to identify HPRT gene-edited cells (See Russell et al., 2008, Human Gene Therapy, 19: 907-914 and Deyle et al., 2014, Nature Structural & Molecular Biol., 21: 969-975). Targeted clones are expanded as a polyclonal population. Untargeted control cells are generated by transducing HT-1080 cells with the MLV vector LHSNO, which is identical to LHSN63Δ53O except that it contains a functional neo gene.
(§3) To determine the effect of emetine on gene editing, experiments were performed using human HT-1080 cells with LHSN63Δ530 provirus and HPRT exon 3Δ4, infected with AAV2-HSN5′ or AAV2-HPe3. Replicate samples of cells were treated under the following conditions: • AAV (MOI 2×10^4) alone for 24 hours; • 0.125 μM emetine for 8 hours followed by the addition of AAV (MOI 2×10^4) and incubation for 24 hours; • 0.25 μM emetine for 24 hours followed by the addition of AAV (MOI 2×10^4) and incubation for 24 hours; • 0.25 μM emetine for 24 hours followed by the addition of AAV (MOI 2×10^4) and incubation with AAV for 24 hours; • 0.25 μM emetine in the presence of AAV (MOI 2×10^4) for 24 hours; • AAV (MOI-2×10^4) for 8 hours followed by the addition of 0.25 μM emetine and incubation with emetine for 23 hours; • AAV (MOI-2×10^4) for 24 hours followed by the addition of 0.25 μM emetine and incubation with emetine for 8 hours; • AAV (MOI-2×10^4) for 8 hours followed by the addition of emetine (0.25 μM) and incubation with emetine for 18 hours, removal of emetine, followed by addition of a second dosage of emetine (0.25 μM) and incubation for 16 hours; or • AAV (MOI 2×10^4) for 24 hours followed by the addition of emetine (0.25 μM) and incubation for 7 hours, removal of emetine, followed by addition of a second dosage of emetine (0.25 μM) for 2 hours.
(§4) For each experiment, 2×10^4 cells were seeded and cultured in the presence of 4×10^8 AAV. All experiments were performed in DMEM+10% FBS+pen/strep. Emetine dihydrochloride hydrate: E2375 (Sigma) was prepared in water and sterilized by filtration on 0.22 uM filter.

[2] = test system: HT-1080 cells with LHSN63D530 provirus and HPRT exon3D4; assay: HPRT gene editing in HT-1080 cells infected with AAV2-HPe3 (HAT selection), effect of emetine; type: cell-based, human
Text: as §1, §2, §3, §4

[3] = test system: mouse liver; assay: In vivo gene editing of mouse liver with AAVDj-mALB-luciferase (bioluminescence imaging); set-up: species or system C57BL/6 mice; conditions: emetine 5 mg/kg intraperitoneal, days 1-5, FIG. 3
Experimental: To determine the effect of emetine on gene editing in vivo, experiments were performed using C57BL/6 mice.
[…]. On day 0, 5 mice (Group I), were given AAVDj-mALB-luciferase vector at an amount of 3×10^11 vg/mouse by retro orbital injection. Gene editing of the AAVDj-mALB-luciferase vector results in an albumin locus knock-in and luciferase expression. 5 mice (Group 2) were injected with AAVDj-mALB-luciferase vector, at an amount of 3×10^11 vg/mouse by retro orbital injection, and given emetine in DPBS, at a concentration of 5 mg/kg, by intraperitoneal injection. 5 mice (Group 3) were injected only with emetine at a concentration of 5 mg/kg, by intraperitoneal injection.
Emetine was administered to Groups 2 and 3 on days 1-5. On days 8, […] and 22, in vivo imaging in the presence of 15 mg/kg D-luciferin, administered by intraperitoneal injection, was performed to determine the occurrence of editing. Following D-luciferin administration, the mice were anesthetized with isoflurane and placed in an IVIS imager and the peak bioluminescence was recorded (Gornalusse et al., 2017, Nature Biotech, 35(8): 765-772). […] At days 15 and 22, a 1.6 and 1.4 fold increase, respectively, were observed.

[4] = test system: mouse Hepa1-6 hepatoma cells; assay: Gene editing (albumin knock-in, GFP expression by flow cytometry) with AAVDJ-mAlb-GFP; type: cell-based; conditions: 1000 nM emetine
Experimental: To determine the effect of emetine on gene editing, experiments were performed using mouse Hepa1-6 hepatoma cells using the vector AAVDJ-mAlb-GFP. Gene editing in the presence of this vector results in an albumin knock-in with resulting expression of green fluorescent protein (GFP).
On day 0, 100,000 cells were plated in 1.5 ml DMEM with 10% FBS, 100 units/mL penicillin and 100 μg/mL streptomycin. On day 1, cells were transduced with AAVDJ-mAlb-GFP (multiplicity of (MOI)—50,000) by removing the media and adding to the cells 1.5 ml of fresh media (DMEM with 10% FBS, 100 units/mL penicillin, 100 μg/mL streptomycin) containing the desired MOI of the AAVDJ-mAlb-GFP virus. For 100,000 cells, to achieve an MOI of […] were added.
On day 2, fresh medium (1.5 ml of DMEM with 10% FBS, 100 units/mL penicillin, 100 μg/mL streptomycin) with or without emetine, was added. Replicate samples were treated with no emetine, or with 30 nM emetine, 100 nM emetine or 1000 nM emetine. A control sample lacked AAV. On day 3, the media was removed and 1.5 ml of DMEM with 10% FBS, 100 units/mL penicillin, 100 μg/mL streptomycin was added to the cells. Expression of GFP was measured on days 6, 7 and 10.
Flow cytometry was used to measure GFP expression. On the day of the assay (days 6, 7 and 10) cells were trypsinized and the resulting cell pellet was resuspended in 500 μL of FACS buffer (DPBS (Dulbecco's Phosphate Buffered Saline) without Ca2+, Mg2+, and supplemented with 2% FBS, 1 mM EDTA). The resulting cell suspension was analyzed for GFP positive cells on the BD FACScanto II. For samples treated with no AAV, 0 nM emetine, 30 nM emetine, and 100 nM emetine, 100,000 cells were analyzed, and for samples treated with 1000 nM emetine, 70,000 cells were analyzed.

[5] = 0.125 μM emetine for 8 hrs before adding AAV
[6] = 0.25 μM emetine for 24 hrs before adding AAV
[7] = 0.25 μM emetine for 24 hrs before adding AAV + 24 hrs with AAV
[8] = 0.25 μM emetine for 24 hrs with AAV
[9] = AAV for 8 hrs, then added 0.25 μM emetine for 23 hrs
[10] = AAV for 8 hrs, then added emetine for 18 hrs, then removed emetine for 8 hrs, then added emetine for 16 hrs
[11] = AAV for 24 hrs then with 0.25 μM emetine for 8 hrs
[12] = AAV for 24 hrs, then emetine for 7 hrs, then removed emetine for 16 hrs, then added emetine for 2 hrs

SMILES: CC[C@H]1CN2CCc3cc(OC)c(OC)cc3[C@@H]2C[C@@H]1C[C@H]1NCCc2cc(OC)c(OC)cc21 [emetine]
- Fold increase in editing frequency due to emetine, % G4158R emetine/% G418R no emetine [1, 5]: 2.40 Fold
- Fold increase in editing frequency due to emetine, % G4158R emetine/% G418R no emetine [1, 6]: 3.82 Fold
- Fold increase in editing frequency due to emetine, % G4158R emetine/% G418R no emetine [1, 7]: 6.64 Fold
- Fold increase in editing frequency due to emetine, % G4158R emetine/% G418R no emetine [1, 8]: 3.70 Fold
- Fold increase in editing frequency due to emetine, % G4158R emetine/% G418R no emetine [1, 9]: 1.96 Fold
- Fold increase in editing frequency due to emetine, % G4158R emetine/% G418R no emetine [1, 10]: 8.47 Fold
- Fold increase in editing frequency due to emetine, % G4158R emetine/% G418R no emetine [1, 11]: 1.94 Fold
- Fold increase in editing frequency due to emetine, % G4158R emetine/% G418R no emetine [1, 12]: 2.63 Fold
- Fold increase in editing frequency due to emetine, % HATR/% HAR no emetine [2, 5]: 8.39 Fold
- Fold increase in editing frequency due to emetine, % HATR/% HAR no emetine [2, 6]: 7.25 Fold
- Fold increase in editing frequency due to emetine, % HATR/% HAR no emetine [2, 7]: 11.19 Fold
- Fold increase in editing frequency due to emetine, % HATR/% HAR no emetine [2, 8]: 8.39 Fold
- Fold increase in editing frequency due to emetine, % HATR/% HAR no emetine [2, 9]: 1.99 Fold
- Fold increase in editing frequency due to emetine, % HATR/% HAR no emetine [2, 10]: 2.88 Fold
- Fold increase in editing frequency due to emetine, % HATR/% HAR no emetine [2, 11]: 1.63 Fold
- Fold increase in editing frequency due to emetine, % HATR/% HAR no emetine [2, 12]: 1.56 Fold
- increase in level of gene editing in vivo in mouse liver (peak bioluminescence) as compared to mice treated with AAV alone ([3]; day 8): 2.3 fold
- increase in level of gene editing in vivo in mouse liver (peak bioluminescence) as compared to mice treated with AAV alone ([3]; day 15): 1.6 fold
- increase in level of gene editing in vivo in mouse liver (peak bioluminescence) as compared to mice treated with AAV alone ([3]; day 22): 1.4 fold
- increase in expression of GFP ([4]; day 6, FIG. 2): 22 fold
- increase in expression of GFP ([4]; day 7, FIG. 2): 12 fold
- increase in expression of GFP ([4]; day 10, FIG. 2): 3 fold
